Biological target: T1, akuBGL (110 kDa β-glucosidase) (Aplysia kurodai, UniProt A0A1V1FXL2)
T1 construct: gene ApBGL; native, purified from digestive fluid; signal peptide M1-D25 removed; 110 kDa; two GH1 domains (L26-T494, D513-P978); N-glycosylated at N113, N212, N645; precursor ends at M994
Assay: HPLC or absorbance at […] nm of o-nitrophenol
Assay type: biochemical
Conditions: 2.5 mM ONPG, 49 nM akuBGL, pH 5.5, 100 mM NaCl, 10 mM CaCl2, 37 °C, 10 min

T1 sequence (A0A1V1FXL2 entry or part of it): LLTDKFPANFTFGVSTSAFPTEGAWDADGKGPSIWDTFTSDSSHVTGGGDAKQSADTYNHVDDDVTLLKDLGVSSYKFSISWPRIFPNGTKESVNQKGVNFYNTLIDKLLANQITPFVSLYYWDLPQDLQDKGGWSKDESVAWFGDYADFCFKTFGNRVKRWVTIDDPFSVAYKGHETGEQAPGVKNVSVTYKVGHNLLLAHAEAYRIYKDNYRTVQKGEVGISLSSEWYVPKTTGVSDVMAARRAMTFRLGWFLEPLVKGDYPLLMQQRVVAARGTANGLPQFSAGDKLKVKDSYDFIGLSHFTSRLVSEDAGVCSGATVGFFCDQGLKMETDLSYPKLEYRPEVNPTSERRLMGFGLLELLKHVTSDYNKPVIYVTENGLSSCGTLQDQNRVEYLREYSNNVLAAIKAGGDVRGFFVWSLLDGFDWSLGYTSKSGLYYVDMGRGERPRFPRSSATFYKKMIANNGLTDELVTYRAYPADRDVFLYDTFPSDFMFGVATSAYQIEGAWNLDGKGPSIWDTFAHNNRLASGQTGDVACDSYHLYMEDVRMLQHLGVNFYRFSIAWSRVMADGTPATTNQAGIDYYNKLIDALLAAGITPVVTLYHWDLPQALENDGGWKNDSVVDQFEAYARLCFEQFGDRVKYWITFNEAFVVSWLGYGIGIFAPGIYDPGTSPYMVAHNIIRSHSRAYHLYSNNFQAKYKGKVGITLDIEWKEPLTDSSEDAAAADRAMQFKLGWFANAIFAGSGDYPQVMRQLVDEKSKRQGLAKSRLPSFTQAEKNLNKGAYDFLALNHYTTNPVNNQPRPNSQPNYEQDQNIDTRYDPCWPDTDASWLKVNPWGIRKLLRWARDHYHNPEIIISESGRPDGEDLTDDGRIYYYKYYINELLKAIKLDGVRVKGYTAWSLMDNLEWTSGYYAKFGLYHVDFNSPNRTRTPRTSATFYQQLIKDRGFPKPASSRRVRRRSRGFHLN

O=[N+]([O-])c1ccccc1O[C@@H]1O[C@H](CO)[C@H](O)[C@H](O)[C@H]1O [ortho-nitrophenyl-β-galactoside]
HPLC or absorbance at 420 nm of o-nitrophenol: Ortho-nitrophenyl-β-galactoside (ONPG) was used as a substrate to measure akuBGL activity
